This note sets out measurements from ChEMBL document CHEMBL1142978, “Probing the anticancer activity of nucleoside analogues: a QSAR model approach using an internally consistent training set” (J Med Chem, 2007).

pIC50: −log10 of the molar value. Bounds are passed on as bounds.

This assay can be described thus: Cytotoxicity against mouse L1210/0 cells after 48 hrs. The format is cell-based. Particulars: Mus musculus, L1210/0, 48 h.

For the molecule `C[C@H](O)C1CC(Cn2nnc3c(N)ncnc32)C1(C)C` (stereo partly drawn), the pIC50 (commonly the negative decadic logarithm of the IC50, by convention in mol/L) was less than 3.70.
The result for `C[S+]([O-])c1cn([C@H]2C[C@H](O)[C@@H](CO)O2)c(=O)[nH]c1=O` (stereo partly drawn) reads less than 3.70; that for `O=Cc1cn([C@H]2C[C@H](O)[C@@H](CO)O2)c(=O)[nH]c1=O`, 5.97.
As to `Oc1ncnc2c1ncn2C[C@@H]1C[C@H](O)c2ccccc21`, the negative-log IC50 (pIC50) was less than 3.70.
The molecule `O=c1[nH]cnc2c1nnn2[C@@H]1C[C@H](CO)[C@@H](CO)[C@H]1CO` gave a pIC50 of less than 3.70.
For `CC1(C)C(CO)CC1Cn1nnc2c(N)nc(N)nc21` (stereo not drawn) the value was less than 3.70.
In turn, `CC(C)(C)C#Cc1cn([C@@H]2O[C@H](CO)[C@@H](O)[C@@H]2O)c(=O)[nH]c1=O` gave a pIC50 of less than 3.70.
In the case of `OC[C@@H]1[C@@H]2COC[C@H]2C[C@H]1n1cnc2c(Cl)ncnc21`, the pIC50 is less than 3.70.
For `O=c1[nH]cnc2c1nnn2C1C[C@H](CO)[C@@H](CO)[C@@H]1CO` (stereo partly drawn) the value was less than 3.70; for `CSc1cn([C@H]2C[C@H](O)[C@@H](CO)O2)c(=O)[nH]c1=O`, less than 3.70; for `O=c1[nH]c(=O)n(COCCO)cc1[N+](=O)[O-]`, less than 3.70.
In turn, `CC(=O)OCCOCn1cnc2c(Cl)nc(N)nc21` had a negative-log IC50 (pIC50) of less than 3.70.
The result for `Nc1ncnc2c1ncn2CCOCP(=O)(O)O` [ADEFOVIR] reads 5.13; that for `COc1ccc(C(=O)/C=C/c2cc(=O)[nH]c(=O)n2COCCO)cc1`, 4.48.
`CC1(C)[C@@H](Cn2nnc3c(N)nc(N)nc32)CC[C@@]1(C)CO` had a negative-log IC50 (pIC50) of less than 3.70.
In turn, `C[C@H](O)C1CC(Cn2nnc3c(=O)[nH]cnc32)C1(C)C` (stereo partly drawn) showed a pIC50 of less than 3.70.
Turning to `COC1=C(OC)/C(=C/C(n2cnc3c(N)ncnc32)P(O)(=S)OC)OC1=O` (stereo not drawn), the pIC50 is less than 3.70.
For `CCO/N=C\C1OC(n2cnc3c(N)ncnc32)C(O)C1O` (stereo not drawn) the value was less than 3.70.
For `O=C1O/C(=C\Cn2ccc(=O)[nH]c2=O)C(O)=C1O` the value was less than 3.70; for `CC1(C)[C@@H](Cn2cnc3c(O)nc(N)nc32)CC[C@@]1(C)CO`, less than 3.70.
The result for `O=c1[nH]c(=O)n(COCCO)cc1Cl` reads less than 3.70; that for `CCCNc1ncnc2c1ncn2C[C@@H]1C[C@H](CO)c2ccccc21`, less than 3.70; that for `CC1(C)[C@@H](Cn2cnc3c(N)nc(N)nc32)CC[C@@]1(C)CO`, less than 3.70.
Turning to `CC(=O)OC(C)Cn1cnc2c(Cl)nc(I)nc21` (stereo not drawn), the negative-log IC50 (pIC50) was 4.89.
For `O[C@H]1C[C@@H](Cn2cnc3c(Cl)ncnc32)c2ccccc21` the value was less than 3.70; for `CCCCC#Cc1cn([C@H]2C[C@H](O)[C@@H](CO)O2)c(=O)[nH]c1=O`, less than 3.70; for `CC(O)Cn1cnc2c(F)nc(N)nc21` (stereo not drawn), less than 3.70.
In the case of `CC1(C)[C@@H](CCCO)C[C@H]1n1nnc2c(Cl)nc(N)nc21`, the pIC50 is less than 3.70.
In the case of `COCC#Cc1cn([C@H]2C[C@H](O)[C@@H](CO)O2)c(=O)[nH]c1=O`, the pIC50 is less than 3.70.
As to `Nc1nc(=O)ccn1COCCO`, the pIC50 is less than 3.70.
The result for `OC[C@@H]1CC(n2cnc3c(NC4CC4)ncnc32)C[C@@H]1CO` (stereo partly drawn) reads less than 3.70.
In the case of `Nc1ncnc2c1ncn2C1C[C@@H](CO)[C@@H](CO)C1` (stereo partly drawn), the negative-log IC50 (pIC50) was less than 3.70.
The result for `CC1=C(c2cn([C@H]3C[C@H](O)[C@@H](CO)O3)c(=O)[nH]c2=O)C(=O)c2ccccc2C1=O` reads 4.16.
`O=c1[nH]c(=O)n([C@H]2C[C@H](O)[C@@H](CO)O2)cc1C#CCO` showed a pIC50 of less than 3.70.
Molecule `C[C@H](O)C1CC(Cn2cnc3c(=O)[nH]cnc32)C1(C)C` (stereo partly drawn) showed a negative-log IC50 (pIC50) of less than 3.70.
The result for `Nc1ncnc2c1ncn2[C@@H]1O[C@H](CO)[C@H](F)[C@@H]1O` reads 5.23.
The result for `CC1(C)[C@@H](CO)CC[C@@]1(C)Cn1nnc2c(N)ncnc21` reads less than 3.70.
Turning to `Nc1nc2c(nc(N)n2COCCO)c(=O)[nH]1`, the pIC50 was less than 3.70.
For `CC(=O)OC(C)Cn1cnc2c(N)nc(I)nc21` (stereo not drawn) the value was less than 3.70; for `O=c1[nH]c(=O)n([C@H]2C[C@H](O)[C@@H](CO)O2)cc1/C=N/O`, 4.81; for `CCOc1ncnc2c1ncn2C[C@@H]1C[C@H](CO)c2ccccc21`, less than 3.70.
`O=c1[nH]cc(F)c(=O)[nH]1` [FLUOROURACIL]: the pIC50 was 6.51.
For `O=C1NCN([C@@H]2O[C@H](COP3OCCC(F)(F)O3)[C@@H](O)C2=O)C=C1F` (stereo partly drawn) the value was 8.00; for `Nc1ccn(COCCO)c(=O)n1`, less than 3.70; for `O=C1O/C(=C\Cn2ccc(=O)[nH]c2=O)C(OCc2ccccc2)=C1OCc1ccccc1`, 4.89.
In turn, `OCCOCn1cnc2c(O)ncnc21` showed a negative logarithm of the IC50 (pIC50) of less than 3.70.
Take `CCCC#Cc1cn([C@H]2C[C@H](O)[C@@H](CO)O2)c(=O)[nH]c1=O`: the negative logarithm of the IC50 (pIC50) was less than 3.70.
Molecule `Cc1ccc(S(=O)(=O)OCCC#Cc2cn([C@H]3C[C@H](O)[C@@H](CO)O3)c(=O)[nH]c2=O)cc1` showed a pIC50 of less than 3.70.
